Assay results taken from patent US12398153B2, “Spiro compound serving as ERK inhibitor, and application thereof” (D3 BIO (WUXI) CO., LTD., priority 2019, dated 2025).
Where two headings read alike, the source gives them in different places.

What was measured:
[1] = test system: HT29 tumor cells; assay: In vitro cell proliferation inhibition assay (CellTiterGlo); assay type: cell-based
Experimental: Assay Example 2. In Vitro Cell Proliferation Inhibition Assay
The ability of compounds to inhibit the proliferation of HT29 tumor cells was measured.
The assay compound was dissolved in 100% DMSO to prepare 10 mM stock solution.
• 1) UV light of a biological safety cabin was turned on, and 30 minutes were counted down; • 2) In a 37° C. water bath, RPMI1640 medium and trypsin were preheated; • 3) After completion of the UV irradiation, the biological safety cabin was opened. The preheated medium, trypsin and phosphate buffered saline (PBS), etc. were wiped with alcohol and placed in the biological safety cabin; • 4) HT29 cells were removed from the incubator, and the old medium was removed in biological safety cabin. 10 ml of PBS was added. The mixture was shaken gently, and then PBS was removed; • 5) 1.5 ml of preheated 0.25% trypsin was added. The culture vessel was shaken horizontally so that the trypsin evenly covered the cells at the bottom, and placed in an incubator for 2 minutes; • 6) Cell digestion was stopped with complete medium, and the cell suspension was pipetted to homogeneity and counted; • 7) According to the result of cell counting, the density of cell suspension was adjusted to 1500 cells per well, and the cell suspension was seeded at 50 μl per well; • 8) The stock solution of compounds was serially diluted in DMSO solution, and compounds were added to cell plate using Tecan;
9) The compound-added cell plate and CellTiterGlo were equilibrated at room temperature, and 25 microliters of CellTiterGlo was then added to each well. The cell plate was shaken for 1-2 minutes and then allowed to stand for 10 minutes. The signal value was then detected. The data were analyzed using XL-Fit, and the IC50 of each compound was calculated.

[2] = molecular target: ERK2 kinase (Homo sapiens (Human), UniProt P28482); assay: Assay of in vitro kinase activity (33P-ATP filter-binding, MBP substrate); assay type: biochemical
Chain of ERK2 kinase (P28482 whole entry): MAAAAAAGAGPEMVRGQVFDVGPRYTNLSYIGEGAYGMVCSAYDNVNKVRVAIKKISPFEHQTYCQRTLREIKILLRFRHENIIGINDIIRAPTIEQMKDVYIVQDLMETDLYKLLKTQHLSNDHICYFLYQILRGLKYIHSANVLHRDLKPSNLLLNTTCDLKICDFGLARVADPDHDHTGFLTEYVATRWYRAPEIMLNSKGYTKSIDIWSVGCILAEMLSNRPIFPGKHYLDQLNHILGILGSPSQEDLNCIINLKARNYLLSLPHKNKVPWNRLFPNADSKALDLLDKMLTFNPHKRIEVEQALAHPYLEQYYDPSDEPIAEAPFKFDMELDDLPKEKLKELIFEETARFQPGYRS
Experimental: Assay Example 1. Assay of In Vitro Kinase Activity
The ability of compounds to inhibit ERK2 kinase activity was measured.
20 mM Hepes (pH 7.5), 10 mM MgCl2, 1 mM ethylenebis(oxyethylenenitrilo)tetraacetic acid (EGTA), 0.02% Brij35, 0.02 mg/mL bovine serum albumin (BSA), 0.1 mM Na3VO4, 2 mM dithiothreitol (DTT), 1% DMSO.
The assay compound was dissolved in 100% DMSO to prepare a stock solution of specific concentration. The compound was serially diluted in DMSO solution using Integra Viaflo Assist smart pipette.
• 1) The substrate MBP was prepared in freshly prepared reaction buffer; • 2) ERK2 kinase was added to the above-mentioned MBP solution and mixed gently; • 3) The compound dissolved in 100% DMSO was added to the kinase reaction system using ultrasound technology (Echo550; nanoliter range), and the mixture was incubated at room temperature for 20 minutes; • 4) ^33P-ATP (specific concentration of […]) was added to the reaction system, and the reaction was started at this time; • 5) The mixture was incubated at room temperature for 2 hours; • 6) The amount of radioactivity was detected by filter-binding method; • 7) ERK2 kinase activity was calculated as the ratio of the remaining kinase activity in the assay sample to the kinase activity of the control group (treated by DMSO). Curve was fitted using Prism (GraphPad software) and IC50 values were calculated. 5.

[3] = In vivo DMPK assay in mouse; conditions: female BALB/c mice; for Oral DNAUC (AUCPO/Dose) / Cmax: 3 mg/kg orally; for clearance / Vd / bioavailability / half-life / Cmax: mouse, plasma; for clearance / Vd: iv, 1 mg/kg intravenously; for clearance: read-out: Cl (clearance rate); for Vd: read-out: Vdss (distribution volume); for bioavailability / Cmax: po; for bioavailability: 1 mg/kg intravenously and 3 mg/kg orally, read-out: F % (oral bioavailability); for half-life: single administration, read-out: T1/2 (half-life) (converted); for Cmax: read-out: Cmax (maximum concentration)
Source text: Assay Example 3. Assay of In Vivo DMPK
In vivo DMPK assay in mouse
Female BALB/c mice were used as assay animals to determine the blood concentration of compounds and evaluate the pharmacokinetic behavior after a single administration.
Eight healthy adult female BALB/c mice were selected, wherein 4 mice were in the intravenous injection group and 4 mice were in the oral group. The vehicle in the intravenous injection group was 5% DMSO+95% (20% HP-β-CD). The compound to be assayed was mixed with an appropriate amount of vehicle for intravenous injection, vortexed and sonicated to prepare a clear solution of 0.5 mg/mL. The clear solution was filtered by a microporous membrane, and then ready for use. The vehicle in the oral group was 5% DMSO+95% (20% HP-β-CD). The compound to be assayed was mixed with the vehicle, vortexed and sonicated to prepare a solution of 0.3 mg/mL. Mice were administered 1 mg/kg intravenously or 3 mg/kg orally, and then whole blood was collected for a certain period. Plasma was prepared. The drug concentration was analyzed by LC-MS/MS method, and the pharmacokinetic parameters were calculated by Phoenix WinNonlin software (Pharsight, USA).
Note: DMSO: dimethyl sulfoxide; HP-β-CD: hydroxypropyl-β-cyclodextrin.

[4] = test system: human colon cancer HCT-116 cells; assay: In vivo efficacy, subcutaneous xenograft tumor of human colon cancer HCT-116 cells in BALB/c nude mouse; conditions: 15 mg/kg, PO, QD
Experimental: Assay Example 4. Assay of In Vivo Efficacy of Subcutaneous Xenograft Tumor of Human Colon Cancer HCT-116 Cells in BALB/c Nude Mouse Model
The anti-tumor effect of WX007 was evaluated using a subcutaneous xenograft tumor model of human colon cancer HCT-116 cells in nude mouse.
• Species: mouse • Strain: BALB/c nude mouse • Age: 6-8 weeks old • Gender: female • Weight: 17-23 grams • Vendor: Laboratory Animal Management Department, Shanghai Institute for Biomedical and Pharmaceutical Technologies • Animal certificate number: 20180006020214 3. Assay Procedure: • 1) Assay cells and culture: Human colon cancer HCT-116 cells were cultured in monolayer in vitro. […] When the cell saturation was 80%-90% and the amount reached the requirement, the cells were harvested, counted, and inoculated; • 2) Tumor tissue inoculation and grouping: 0.2 mL (5×10^6) of HCT-116 cells were subcutaneously inoculated into the right armpit of each mouse. […]
• 3) Daily observation of assay animals: The development of this assay protocol and any modifications were evaluated and approved by the Institutional Animal Care and Use Committee (IACUC). […] Animals were monitored daily for health and death. […] The compound was formulated once a week. • 5) Tumor measurement and assay indicator: • a) Tumor diameter was measured twice a week with a vernier caliper. […]

SMILES	IC50 [2]	IC50 ([1]; Homo sapiens, HT-29)	Oral DNAUC (AUCPO/Dose) [3]	clearance [3]	Vd [3]	bioavailability [3]	half-life [3]	Cmax [3]	IC50 [1]	TGI (inhibition rate of tumor growth) ([4]; 18th day, HCT-116 xenograft in nude mouse)	Body weight of assay animals ([4]; to the 18th day)
Cn1nccc1Nc1nccc(-c2nc3c(s2)[C@@]2(CCOC2)N(Cc2cccc(Cl)c2)C3=O)n1 [WX001A]	0.31 nM	–	–	–	–	–	–	–	21 nM	–	–
Cc1cnc(Nc2ccnn2C)nc1-c1nc2c(s1)C1(COC1)N(Cc1cccc(F)c1)C2=O [WX006]	0.94 nM	14 nM	1356 nM · h/mpk	17.2 mL/min/kg	1.7 L/kg	70%	1.4 h	1400 nM	–	–	–
Cc1cnc(Nc2ccnn2C)nc1-c1nc2c(s1)C1(COC1)N(Cc1cccc(Cl)c1)C2=O [WX007]	0.48 nM	11 nM	1086 nM · h/mpk	14.4 mL/min/kg	1.7 L/kg	46%	1.3 h	595 nM	–	62%	did not decrease significantly

Continued, in another order:

IC50 [2]	IC50 ([1]; Homo sapiens, HT-29)	Oral DNAUC (AUCPO/Dose) [3]	clearance [3]	Vd [3]	bioavailability [3]	half-life [3]	Cmax [3]	SMILES	IC50 [1]	TGI (inhibition rate of tumor growth) ([4]; 18th day, HCT-116 xenograft in nude mouse)	Body weight of assay animals ([4]; to the 18th day)
0.4 nM	73 nM	–	–	–	–	–	–	Cn1nccc1Nc1nccc(-c2nc3c(s2)C2(CCOCC2)N(Cc2cccc(Cl)c2)C3=O)n1 [WX002]	–	–	–
0.29 nM	69 nM	–	–	–	–	–	–	O=C1c2nc(-c3ccnc(NC4CCOCC4)n3)sc2C2(CCOCC2)N1Cc1cccc(Cl)c1 [WX003]	–	–	–
1.1 nM	125 nM	–	–	–	–	–	–	Cn1nccc1Nc1nccc(-c2nc3c(s2)C2(COC2)N(Cc2cccc(F)c2)C3=O)n1 [WX004]	–	–	–
0.36 nM	49 nM	–	–	–	–	–	–	Cn1nccc1Nc1nccc(-c2nc3c(s2)C2(COC2)N(Cc2cccc(Cl)c2)C3=O)n1 [WX005]	–	–	–
